Assays:
Type in all cases: in vivo
[1] = tested on: Russian thistle (Salsola kali); test: Test C pre-/postemergence: Russian thistle; conditions: Preemergence
How it was run: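 Preemergence on seeds in loam/sand, postemergence on 2–18 cm (1–4-leaf) plants in peat-based medium; compounds in non-phytotoxic solvent with surfactant. After 13–15 days in greenhouse, visual rating versus controls, 0 (no effect) to 100 (complete control).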

[2] = tested on: field bindweed (Convolvulus arvensis); test: Test F pre-/postemergence: field bindweed
Source text: (§1) Seeds of plant species selected from corn (Zea mays), soybean (Glycine max), velvetleaf (Abutilon theophrasti), lambsquarters (Chenopodium album), poinsettia, wild (wild poinsettia, Euphorbia heterophylla), pigweed, palmer (palmer pigweed, Amaranthus palmeri), waterhemp (common waterhemp, Amaranthus rudis), surinam grass (Brachiaria decumbens), crabgrass, Brazil (Brazilian crabgrass, Digitaria horizontalis), panicum, fall (fall panicum Panicum dichotomiflorum), crabgrass, large (large crabgrass, Digitaria sanguinalis), foxtail, giant (giant foxtail, Setaria faberii), foxtail, green (green foxtail Setaria viridis), goosegrass (Eleusine indica), ragweed (common ragweed, Ambrosia elatior), barnyardgrass (Echinochloa crus-galli), sandbur (southern sandbur, Cenchrus echinatus), arrowleaf sida (Sida rhombifolia), ryegrass, Italian (Italian ryegrass, Lolium multiflorum), dayflower, VA (Virginia (VA) dayflower, Commelina virginica), field bindweed (Convolvulus arvensis), cocklebur (common cocklebur, Xanthium strumarium), morningglory (Ipomoea coccinea), nightshade (eastern black nightshade, Solanum ptycanthum), kochia (Kochia scoparia), nutsedge, yellow (yellow nutsedge, Cyperus esculentus), johnsongrass (Sorghum halepense), smartweed (ladysthumb smartweed, Polygonum persicaria), and beggarticks (hairy beggarticks, Bidens pilosa), were planted into a silt loam soil and treated preemergence with test chemicals formulated in a non-phytotoxic solvent mixture which included a surfactant. At the same time, plants selected from these crop and weed species and also pigweed (Amaranthus retroflexus), waterhemp_RES1 (ALS/Triazine resistant common waterhemp, Amaranthus rudis) and waterhemp_RES2 (ALS/HPPD resistant common waterhemp, Amaranthus rudis) were planted in pots containing a planting medium comprising spaghnum peat moss, vermiculite, wetting agent and starter nutrients treated with postemergence applications of some of the test chemicals formulated in the same manner. Plants ranged in height from 2 to 18 cm for postemergence treatments (1- to 4-leaf stage).
(§2) Treated plants and controls were maintained in a greenhouse for 14 to 21 days, after which time all species were compared to controls and visually evaluated. Plant response ratings, summarized in Table E, are based on a scale of 0 to 100 where 0 is no effect and 100 is complete control. A dash (-) response means no test result.

[3] = tested on: nightshade (eastern black nightshade, Solanum ptycanthum); test: Test F pre-/postemergence: nightshade; conditions: Preemergence
Source text: as §1, §2

[4] = tested on: sandbur (southern sandbur, Cenchrus echinatus); test: Test F pre-/postemergence: sandbur
How it was run: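 Visual response scores, 0 meaning no effect and 100 complete control, were assigned against untreated controls 14 to 21 days after treatment. Test chemicals in a surfactant-containing non-phytotoxic solvent were applied preemergence to seeded silt loam soil or postemergence to 2–18 cm plants in peat-based medium.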

[5] = tested on: wheat, spring (spring wheat, Triticum aestivum); test: Test D pre-/postemergence: wheat, spring
Source text: Seeds of plant species selected from bluegrass (annual bluegrass, Poa annua), blackgrass (Alopecurus myosuroides), canarygrass (Phalaris minor), chickweed (common chickweed, Stellaria media), galium (catchweed bedstraw, Galium aparine), bromegrass, downy (downy bromegrass, Bromus tectorum), field poppy (Papaver rhoeas), field violet (Viola arvensis), foxtail, green (green foxtail, Setaria viridis), deadnettle (henbit deadnettle, Lamium amplexicaule), ryegrass, Italian (Italian ryegrass, Lolium multiflorum), kochia (Kochia scoparia), lambsquarters (Chenopodium album), oilseed rape (Brassica napus), pigweed (Amaranthus retroflexus), Russian thistle (Salsola iberica), chamomile (scentless chamomile, Matricaria inodora), speedwell (bird's-eye speedwell, Veronica persica), barley, spring (spring barley, Hordeum vulgare), wheat, spring (spring wheat, Triticum aestivum), buckwheat, wild (wild buckwheat, Polygonum convolvulus), mustard, wild (wild mustard, Sinapis arvensis), oat, wild (wild oat, Avena fatua), radish, wild (wild radish, Raphanus raphanistrum), windgrass (Apera spica-venti), barley, winter (winter barley, Hordeum vulgare), and wheat, winter (winter wheat, Triticum aestivum) were planted into a silt loam soil and treated preemergence with test chemicals formulated in a non-phytotoxic solvent mixture which included a surfactant. At the same time, these same crop and weed species were planted in pots containing the planting medium comprising spaghnum peat moss, vermiculite, wetting agent and starter nutrients and treated with postemergence applications of the test chemicals formulated in the same manner. Plants ranged in height from 2 to 18 cm (1- to 4-leaf stage).
as §2, with “controlled growth environment” for “greenhouse”, “days” for “days,”, “D,” for “E,”

[6] = 250 g ai/ha, scale 0 to 100, 0 no effect, 100 complete control
[7] = Preemergence, 16 g ai/ha, scale 0 to 100, 0 no effect, 100 complete control
[8] = Preemergence, 31 g ai/ha, scale 0 to 100, 0 no effect, 100 complete control
[9] = Preemergence, 62 g ai/ha, scale 0 to 100
[10] = Preemergence, 125 g ai/ha, scale 0 to 100
[11] = Preemergence, 250 g ai/ha, scale 0 to 100
[12] = 16 g ai/ha, scale 0 to 100, 0 no effect, 100 complete control
[13] = 31 g ai/ha, scale 0 to 100, 0 no effect, 100 complete control
[14] = 62 g ai/ha, scale of 0 to 100, 0 is no effect, 100 is complete control
[15] = 125 g ai/ha, scale 0 to 100, 0 no effect, 100 complete control
[16] = Postemergence, 31 g ai/ha, scale 0 to 100 (0 no effect, 100 complete control)
[17] = Postemergence, 62 g ai/ha, scale 0 to 100 (0 no effect, 100 complete control)
[18] = Postemergence, 125 g ai/ha, scale 0 to 100, 0 no effect, 100 complete control
[19] = Postemergence, 16 g ai/ha, scale 0 to 100
[20] = Postemergence, 250 g ai/ha, scale 0 to 100
[21] = Postemergence, 31 g ai/ha, scale 0 to 100
[22] = Postemergence, 62 g ai/ha, scale 0 to 100
[23] = Postemergence, 125 g ai/ha, scale 0 to 100

SMILES | Plant response rating, Russian Thistle [1, 6] | Plant response rating, Field Bindweed [2, 7] | Plant response rating, Field Bindweed [2, 8] | Plant response rating, Field Bindweed [2, 9] | Plant response rating, Field Bindweed [2, 10] | Plant response rating, Field Bindweed [2, 11] | Plant response rating, Nightshade [3, 12] | Plant response rating, Nightshade [3, 13] | Plant response rating, Nightshade ([3]; 125 g ai/ha, scale 0 to 100) | Plant response rating, Nightshade ([3]; 250 g ai/ha, scale 0 to 100) | Plant response rating, Sandbur [4, 7] | Plant response rating, Sandbur [4, 8] | Plant response rating, Sandbur [4, 10] | Plant response rating, Sandbur [4, 11] | further results
COc1nn(-c2cccc(F)c2)nc1Cc1ccnc(C(F)(F)F)c1 [Compound 139] | 5 | 0 | 0 | 0 | 0 | 20 | 20 | 35 | 100 | 100 | 0 | 5 | 35 | 40 | –
Cc1nn(-c2ccc(F)cc2F)nc1Oc1ccnc(C(F)(F)F)c1 [Compound 146] | 95 | 0 | 0 | 0 | 0 | 25 | 0 | 10 | 65 | 100 | 0 | 0 | 25 | 70 | Plant response rating, Russian Thistle ([1]; 31 g ai/ha, scale of 0 to 100, 0 is no effect, 100 is complete control): 0; Plant response rating, Russian Thistle [1, 14]: 0; Plant response rating, Russian Thistle [1, 15]: 80
Cc1nn(-c2ccc(C(F)(F)F)c(F)c2)nc1Oc1ccnc(C(F)(F)F)c1 [Compound 148] | 95 | 0 | 0 | 0 | 20 | 50 | 0 | 0 | 98 | 98 | 0 | 0 | 70 | 100 | Plant response rating, Russian Thistle [1, 14]: 85; Plant response rating, Russian Thistle [1, 15]: 95; Plant response rating: Wheat, Spring [5, 16]: 10; Plant response rating: Wheat, Spring [5, 17]: 20; Plant response rating: Wheat, Spring [5, 18]: 25; Plant response rating, Wheat, Spring [5, 19]: 10; Plant response rating, Wheat, Spring [5, 7]: 0; Plant response rating, Wheat, Spring [5, 8]: 0; Plant response rating, Wheat, Spring [5, 9]: 0; Plant response rating, Wheat, Spring [5, 10]: 5
CCc1nn(-c2ccc(F)cc2)nc1Cc1ccnc(C(F)(F)F)c1 [Compound 154] | – | 0 | 0 | 5 | 35 | 95 | 0 | 10 | 90 | 100 | 0 | 30 | 98 | 100 | –
CCc1nn(-c2ccc(C(F)(F)F)cc2)nc1Cc1ccnc(C(F)(F)F)c1 [Compound 155] | – | – | – | 85 | 95 | 100 | – | – | 100 | 100 | – | – | 100 | 100 | Plant response rating: Wheat, Spring [5, 16]: 20; Plant response rating: Wheat, Spring [5, 17]: 25; Plant response rating: Wheat, Spring [5, 18]: 50; Plant response rating, Wheat, Spring [5, 19]: 15; Plant response rating, Wheat, Spring [5, 7]: 0; Plant response rating, Wheat, Spring [5, 8]: 0; Plant response rating, Wheat, Spring [5, 9]: 0; Plant response rating, Wheat, Spring [5, 10]: 5
CCc1nn(-c2ccc(C(F)(F)F)cc2)nc1Oc1ccnc(C(F)(F)F)c1 [Compound 169] | – | 0 | 0 | – | 20 | 80 | 0 | 80 | 100 | 100 | 0 | 20 | 65 | 75 | Plant response rating, Field Bindweed [2, 20]: 55; Plant response rating, Field Bindweed [2, 19]: 20; Plant response rating, Field Bindweed [2, 21]: 20; Plant response rating, Field Bindweed [2, 22]: 30; Plant response rating, Field Bindweed [2, 23]: 35; Plant response rating, Sandbur [4, 20]: 25; Plant response rating, Sandbur [4, 19]: 15; Plant response rating, Sandbur [4, 21]: 15; Plant response rating, Sandbur [4, 22]: 20; Plant response rating, Sandbur [4, 23]: 20
CCc1nn(-c2ccc(F)c(F)c2)nc1Oc1ccnc(C(F)(F)F)c1 [Compound 171] | – | 0 | 0 | 0 | 5 | 5 | 0 | 0 | 5 | 5 | 0 | 5 | 50 | 50 | –
CCCc1nn(-c2ccc(F)c(F)c2)nc1Oc1ccnc(C(F)(F)F)c1 [Compound 172] | – | – | 5 | – | 95 | 95 | – | 5 | 100 | 100 | – | 5 | 70 | 100 | Plant response rating, Field Bindweed [2, 20]: 60; Plant response rating, Field Bindweed [2, 21]: 25; Plant response rating, Field Bindweed [2, 23]: 60; Plant response rating, Sandbur [4, 20]: 40; Plant response rating, Sandbur [4, 21]: 20; Plant response rating, Sandbur [4, 23]: 30

Source: US9302999B2, “Substituted triazoles as herbicides” (E. I. DU PONT DE NEMOURS AND COMPANY, priority 2012, dated 2016)
